According to US20130171105A1, “CANCER THERAPY USING A COMBINATION OF A HSP90 INHIBITORY COMPOUND AND A TOPOISOMERASE II INHIBITOR” (SYNTA PHARMACEUTICALS CORP., priority 2010, published 2013):

What was measured:
[1] = target: T1, topoisomerase II (Homo sapiens, UniProt P11388); assay: kDNA decatenation assay (Topo II assay); type: biochemical; design: key: + (some inhibition); + (some inhibition) < ++ < +++; ++ < +++ < ++++; ++++ (complete inhibition); conditions: kDNA substrate, 37° C. for 30 min, agarose gel
T1 construct: purchased TopoGEN, Inc
T1 sequence (P11388 whole entry): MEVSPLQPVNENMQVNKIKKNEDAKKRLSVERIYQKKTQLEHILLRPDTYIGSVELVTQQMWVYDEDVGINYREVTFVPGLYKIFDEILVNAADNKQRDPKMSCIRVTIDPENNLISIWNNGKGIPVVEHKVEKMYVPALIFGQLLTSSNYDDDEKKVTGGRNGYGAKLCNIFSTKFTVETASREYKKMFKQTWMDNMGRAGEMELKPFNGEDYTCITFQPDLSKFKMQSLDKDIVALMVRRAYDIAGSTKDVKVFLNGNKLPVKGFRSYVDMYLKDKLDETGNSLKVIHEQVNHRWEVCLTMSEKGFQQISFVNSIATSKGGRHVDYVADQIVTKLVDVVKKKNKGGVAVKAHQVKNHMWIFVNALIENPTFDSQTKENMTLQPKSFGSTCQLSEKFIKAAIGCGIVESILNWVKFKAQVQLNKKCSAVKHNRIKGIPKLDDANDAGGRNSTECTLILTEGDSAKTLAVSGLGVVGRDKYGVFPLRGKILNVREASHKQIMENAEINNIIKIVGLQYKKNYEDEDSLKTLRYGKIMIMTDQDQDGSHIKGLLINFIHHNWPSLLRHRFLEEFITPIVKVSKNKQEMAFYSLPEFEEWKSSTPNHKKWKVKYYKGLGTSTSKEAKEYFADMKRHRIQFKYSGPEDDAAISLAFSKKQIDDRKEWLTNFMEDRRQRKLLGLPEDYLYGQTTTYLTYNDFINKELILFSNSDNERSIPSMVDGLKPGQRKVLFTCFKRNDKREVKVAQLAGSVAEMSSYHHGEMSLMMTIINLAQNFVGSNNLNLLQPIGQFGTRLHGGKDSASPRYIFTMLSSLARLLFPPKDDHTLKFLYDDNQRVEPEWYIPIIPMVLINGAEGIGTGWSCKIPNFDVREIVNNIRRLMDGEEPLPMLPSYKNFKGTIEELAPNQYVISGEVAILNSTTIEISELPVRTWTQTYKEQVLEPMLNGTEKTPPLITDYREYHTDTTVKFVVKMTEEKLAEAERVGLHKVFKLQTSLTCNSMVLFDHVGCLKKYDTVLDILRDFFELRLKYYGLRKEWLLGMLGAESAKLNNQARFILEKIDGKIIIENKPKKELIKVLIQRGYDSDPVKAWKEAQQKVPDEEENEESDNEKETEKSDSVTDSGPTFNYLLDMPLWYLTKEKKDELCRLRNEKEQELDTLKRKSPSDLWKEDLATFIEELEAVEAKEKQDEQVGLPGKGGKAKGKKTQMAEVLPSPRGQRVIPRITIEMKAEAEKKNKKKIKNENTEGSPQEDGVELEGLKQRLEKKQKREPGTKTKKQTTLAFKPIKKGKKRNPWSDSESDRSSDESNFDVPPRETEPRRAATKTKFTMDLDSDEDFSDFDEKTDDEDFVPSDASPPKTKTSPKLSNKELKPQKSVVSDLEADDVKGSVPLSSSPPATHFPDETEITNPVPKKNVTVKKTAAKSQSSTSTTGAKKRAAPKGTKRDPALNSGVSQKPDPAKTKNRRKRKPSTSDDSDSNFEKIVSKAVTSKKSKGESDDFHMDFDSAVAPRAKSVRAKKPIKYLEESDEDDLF
Protocol: The ability of compounds of the formulae (I) or (Ia) to inhibit the activity of topoisomerase II was examined with a kDNA decatenation assay (TopoGEN, Inc. Port Orange, Fla.). Substrate kDNA was mixed with compounds and incubated at 37° C. for 30 min. The reaction was stop by adding ⅕ volume of stop buffer. 20 μl of the reaction was loaded on 1% agarose gel. Image of decatenation of kDNA by compounds was taken by Kodak Image Station 440. Table 1 indicates the ability of compound 1 inhibiting the activity of topoisomerase II.

[2] = test system: K562 chronic myelogenous leukemia cells; assay: Cell viability, Alamar Blue assay; conditions: Homo sapiens, K562, 72 h, read-out: IC50 (cell viability)
Protocol: Human K562 chronic myelogenous leukemia cells (American Type Culture Collection) were grown in RPMI medium with 2 mM L-glutamine, antibiotics (100 IU/ml penicillin and 100 μg/ml streptomycin) and 10% fetal bovine serum (Sigma Aldrich). Cells were maintained at 37° C., 5% CO2 atmosphere and subcultured at 1×10^6 cells/mL.
Cell viability was measured using the Alamar Blue assay (Invitrogen). In brief, cells were plated in 96-well plates in triplicate at 2000 cells per well and incubated at 37° C., 5% CO2 atmosphere for 24 hr prior to the addition of drug or vehicle (0.3% DMSO) to the culture medium. After 72 hr, 10 μl/well Alamar Blue was added to the wells and incubated for an additional 3 hr at 37° C., 5% CO2 atmosphere. Fluorescence (560Ex/590Em nM) was measured with a SpectraMax microplate reader (Molecular Devices) and the resulting data were used to calculate cell viability, normalized to vehicle control.
After 72 hr exposure to drug, cell viability was measured and results were fit to a four parameter logistic model (XLFit, ID Business Solutions) shown in FIG. 1.

| SMILES | Topo II assay (effectiveness at inhibition) [1] | IC50 [2] [nM] |
| --- | --- | --- |
| CC(C)c1cc(-c2nnc(O)n2-c2ccc3c(ccn3C)c2)c(O)cc1O [Compound 1, 3-(2,4-DIHYDROXY-5- ISOPROPYL-PHENYL)-4-(1- METHYL-INDOL-5-YL)-5- HYDROXY-[1,2,4] TRIAZOLE] | + | 16 |
| COc1cc([C@@H]2c3cc4c(cc3[C@@H](O[C@@H]3O[C@@H]5CO[C@@H](C)O[C@H]5[C@H](O)[C@H]3O)[C@H]3COC(=O)[C@H]23)OCO4)cc(OC)c1O [etoposide, reference compound] | – | 21 |
